Measured values published in ChEMBL document CHEMBL1134722, “Selective, orally active MMP inhibitors with an aryl backbone” (Bioorg Med Chem Lett, 2001).

How the values were obtained:
[1] = Cmax after oral administration at 20 mpk in rats; format: ADME, organism-based; set-up: dose 20 mpk, route oral; details: rat, in vivo, 20 mg/kg
[2] = Oral bioavailability in rat; format: ADME, organism-based; details: in vivo, read-out: BA
[3] = Half life period after intravenous administration at 20 mpk in rats; format: ADME, organism-based; details: rat, in vivo, 20 mg/kg
[4] = target: T1, Interstitial collagenase (Homo sapiens) (UniProt P03956); test: Inhibitory activity against human Matrix metalloprotease-1
T1 sequence (whole entry): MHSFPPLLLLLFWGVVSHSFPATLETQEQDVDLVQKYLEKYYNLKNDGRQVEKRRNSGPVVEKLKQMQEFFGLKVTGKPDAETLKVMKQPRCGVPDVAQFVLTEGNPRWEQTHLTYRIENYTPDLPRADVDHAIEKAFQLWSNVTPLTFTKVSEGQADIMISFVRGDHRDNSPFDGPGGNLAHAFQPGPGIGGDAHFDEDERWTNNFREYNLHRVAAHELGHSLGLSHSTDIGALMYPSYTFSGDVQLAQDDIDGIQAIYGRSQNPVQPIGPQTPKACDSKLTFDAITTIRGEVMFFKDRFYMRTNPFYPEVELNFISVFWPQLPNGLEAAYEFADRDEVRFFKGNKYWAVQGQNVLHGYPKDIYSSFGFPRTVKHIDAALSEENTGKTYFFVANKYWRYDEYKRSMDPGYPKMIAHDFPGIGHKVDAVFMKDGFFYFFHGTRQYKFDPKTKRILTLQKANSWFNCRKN

[5] = target: 72 kDa type IV collagenase (Homo sapiens) (UniProt P08253); test: Inhibitory concentration against Matrix metalloprotease-2
Sequence of 72 kDa type IV collagenase (Homo sapiens) (P08253 110-660 limits assumed): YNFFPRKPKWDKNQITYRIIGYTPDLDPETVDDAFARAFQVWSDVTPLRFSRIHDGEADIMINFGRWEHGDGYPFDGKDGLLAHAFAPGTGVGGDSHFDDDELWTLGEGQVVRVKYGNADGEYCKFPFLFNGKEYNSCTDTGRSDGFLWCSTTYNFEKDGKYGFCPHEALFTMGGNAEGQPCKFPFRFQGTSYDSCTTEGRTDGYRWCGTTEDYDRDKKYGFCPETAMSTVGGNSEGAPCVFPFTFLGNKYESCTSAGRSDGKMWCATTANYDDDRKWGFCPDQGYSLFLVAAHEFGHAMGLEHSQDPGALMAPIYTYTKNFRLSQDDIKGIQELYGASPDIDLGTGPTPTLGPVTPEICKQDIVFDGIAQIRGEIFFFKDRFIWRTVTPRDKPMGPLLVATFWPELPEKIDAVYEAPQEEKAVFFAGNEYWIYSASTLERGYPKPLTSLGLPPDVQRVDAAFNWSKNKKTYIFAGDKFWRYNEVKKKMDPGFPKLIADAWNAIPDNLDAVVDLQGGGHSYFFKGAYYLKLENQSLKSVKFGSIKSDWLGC

| Structure (SMILES) | Cmax [1] [ng/mL] | bioavailability [2] [%] | half-life [3] [h] | Activity [4] [µM] | Activity [5] [nM] |
| --- | --- | --- | --- | --- | --- |
| CNC(=O)[C@@H](NC(=O)C(CC(C)C)C(O)C(=O)NO)C(C)(C)C (single isomer, unassigned) | 2400 | 9 | 0.9 | – | – |
| COc1ccc(OC2CCN(S(=O)(=O)c3ccc(OC)c(OC)c3C(=O)NO)CC2)cc1 | – | – | – | > 10 | 1.8 |
| COc1ccc(S(=O)(=O)N2CCC(Oc3ccc(OC(F)(F)F)cc3)CC2)c(C(=O)NO)c1OC | 5160 | 31 | 1.5 | > 10 | 0.8 |
| COc1ccc(S(=O)(=O)N2CCC(Oc3ccc(Cl)cc3)CC2)c(C(=O)NO)c1OC | – | – | – | > 10 | 0.3 |
| COc1ccc(S(=O)(=O)N2CCC(OCc3ccc4c(c3)OCO4)CC2)c(C(=O)NO)c1OC | 9200 | – | – | > 10 | 1 |
| O=C(NO)c1c(S(=O)(=O)N2CCC(Oc3ccc(C(F)(F)F)cc3)CC2)ccc2c1OCCO2 | 3200 | – | – | > 10 | 1.4 |
| O=C(NO)c1ccccc1S(=O)(=O)N1CCC(Oc2ccc(C(F)(F)F)cc2)CC1 | 1230 | 23 | 0.8 | > 10 | – |
| COc1ccc(OC)c(S(=O)(=O)N2CCC(Oc3ccc(C(F)(F)F)cc3)CC2)c1C(=O)NO | – | – | – | > 10 | 21 |
| COc1ccc(S(=O)(=O)N2CCC(Oc3ccc(C(F)(F)F)cc3)CC2)c(C(=O)NO)c1OC | 22500 | 32 | 1.9 | > 10 | 2.4 |
| O=C(NO)c1c(OC2CCOCC2)cccc1S(=O)(=O)N1CCC(Oc2ccc(C(F)(F)F)cc2)CC1 | – | – | – | > 10 | 1.1 |
| O=C(NO)C1(CS(=O)(=O)c2ccc(Oc3ccc(Cl)cc3)cc2)CCOCC1 [CTS-1027] | 1370 | 22 | 1.5 | 0.8 | 0.4 |
| COc1ccccc1OC1CCN(S(=O)(=O)c2ccc(OC)c(OC)c2C(=O)NO)CC1 | – | – | – | > 10 | 330 |
| O=C(NO)c1c(S(=O)(=O)N2CCC(OCc3ccc4c(c3)OCO4)CC2)ccc2c1OCO2 | – | – | – | > 10 | 1.1 |
| O=C(NO)c1c(Cl)cccc1S(=O)(=O)N1CCC(Oc2ccc(C(F)(F)F)cc2)CC1 | 1310 | – | – | > 10 | 1.9 |
| O=C(NO)c1ccccc1S(=O)(=O)N1CCC(Oc2ccc(OC(F)(F)F)cc2)CC1 | 670 | 39 | – | > 10 | 2.2 |
| CC1(C)SCCN(S(=O)(=O)c2ccc(Oc3ccncc3)cc2)[C@H]1C(=O)NO [PRINOMASTAT] | 2060 | 28 | 1.6 | – | – |
| COc1ccc(S(=O)(=O)N2CCC(Oc3ccccc3)CC2)c(C(=O)NO)c1OC | – | – | – | > 10 | 1.1 |
| COCCOc1cccc(S(=O)(=O)N2CCC(Oc3ccc(C(F)(F)F)cc3)CC2)c1C(=O)NO | 2670 | – | – | > 10 | 1 |
| O=C(NO)c1c(S(=O)(=O)N2CCC(Oc3ccc(C(F)(F)F)cc3)CC2)ccc2c1OCO2 | 3060 | – | – | > 10 | 3 |
| O=C(NO)c1c(F)cccc1S(=O)(=O)N1CCC(Oc2ccc(C(F)(F)F)cc2)CC1 | – | – | – | > 10 | 3.3 |
| COc1cccc(OC2CCN(S(=O)(=O)c3ccc(OC)c(OC)c3C(=O)NO)CC2)c1 | – | – | – | > 10 | 12 |
